Reference: ChEMBL document CHEMBL4138296, “Nonacidic Chemotype Possessing N-Acylated Piperidine Moiety as Potent Farnesoid X Receptor (FXR) Antagonists” (ACS Med Chem Lett, 2018)
pIC50: −log10 of the molar value. Calls of active or inactive are those of the source. The rule behind the calls is not given here.

How the values were obtained:
[1] = biological target: T1, G-protein coupled bile acid receptor 1 (Homo sapiens) (UniProt Q8TDU6); assay: Antagonist activity at TGR5 (unknown origin) assessed as inhibition of lithocholic acid-induced response at 1 uM by luciferase reporter gene assay; format: functional
T1 sequence (whole entry): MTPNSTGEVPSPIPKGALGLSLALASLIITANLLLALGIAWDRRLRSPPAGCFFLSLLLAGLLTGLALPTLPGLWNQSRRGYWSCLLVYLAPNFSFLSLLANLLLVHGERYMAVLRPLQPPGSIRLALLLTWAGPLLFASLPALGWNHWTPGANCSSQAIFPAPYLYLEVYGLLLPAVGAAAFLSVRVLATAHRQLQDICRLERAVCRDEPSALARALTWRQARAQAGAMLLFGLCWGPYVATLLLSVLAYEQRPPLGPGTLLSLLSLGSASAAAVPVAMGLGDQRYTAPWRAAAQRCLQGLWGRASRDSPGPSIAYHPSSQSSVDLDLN

3T3-L1 [2] = assay: Antiadipogenic activity in mouse 3T3L1 cells assessed as inhibition of CDCA-induced triglyceride accumulation after 6 days; format: functional, cell-based
Hep 3B2 = assay: Cytotoxicity against human Hep3B cells assessed as reduction in cell viability by MTT assay; format: functional, cell-based
[3] = biological target: T2, Oxysterols receptor LXR-alpha (Homo sapiens) (UniProt Q13133); assay: Antagonist activity at LXRalpha (unknown origin) assessed as inhibition of TO901317-induced response at 1 uM by luciferase reporter gene assay
T2 sequence (whole entry): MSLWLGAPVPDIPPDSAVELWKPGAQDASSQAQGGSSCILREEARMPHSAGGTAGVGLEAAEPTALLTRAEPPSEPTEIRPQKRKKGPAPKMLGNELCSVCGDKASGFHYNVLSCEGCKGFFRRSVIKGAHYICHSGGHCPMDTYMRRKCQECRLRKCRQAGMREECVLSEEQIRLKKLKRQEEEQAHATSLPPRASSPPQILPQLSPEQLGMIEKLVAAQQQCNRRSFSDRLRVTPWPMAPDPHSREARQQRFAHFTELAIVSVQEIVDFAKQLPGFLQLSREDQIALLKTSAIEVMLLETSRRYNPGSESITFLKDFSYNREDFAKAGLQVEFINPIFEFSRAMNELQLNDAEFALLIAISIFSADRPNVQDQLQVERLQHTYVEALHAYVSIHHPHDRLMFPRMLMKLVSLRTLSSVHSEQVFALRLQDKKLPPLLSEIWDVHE

[4] = biological target: T2, Oxysterols receptor LXR-alpha (Homo sapiens); assay: Agonist activity at LXRalpha (unknown origin) at 1 uM by luciferase reporter gene assay
[5] = biological target: T3, Oxysterols receptor LXR-beta (Homo sapiens) (UniProt P55055); assay: Antagonist activity at LXRbeta (unknown origin) assessed as inhibition of TO901317-induced response at 1 uM by luciferase reporter gene assay
T3 sequence (whole entry): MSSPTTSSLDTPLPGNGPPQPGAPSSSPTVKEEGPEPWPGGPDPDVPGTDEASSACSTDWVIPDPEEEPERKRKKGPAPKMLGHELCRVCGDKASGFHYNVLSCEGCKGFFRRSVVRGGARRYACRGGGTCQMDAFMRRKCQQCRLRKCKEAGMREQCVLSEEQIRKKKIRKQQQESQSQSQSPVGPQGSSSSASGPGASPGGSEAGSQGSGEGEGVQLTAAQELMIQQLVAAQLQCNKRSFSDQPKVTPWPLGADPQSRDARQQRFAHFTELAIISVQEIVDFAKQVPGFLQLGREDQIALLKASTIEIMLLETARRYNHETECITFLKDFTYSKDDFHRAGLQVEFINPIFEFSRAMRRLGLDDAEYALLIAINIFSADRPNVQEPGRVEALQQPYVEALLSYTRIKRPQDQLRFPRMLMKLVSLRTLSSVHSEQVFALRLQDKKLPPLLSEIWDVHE

[6] = biological target: T4, Peroxisome proliferator-activated receptor alpha (Homo sapiens) (UniProt Q07869); assay: Antagonist activity at PPARalpha (unknown origin) assessed as inhibition of GW7647-induced response at 1 uM by luciferase reporter gene assay
T4 sequence (whole entry): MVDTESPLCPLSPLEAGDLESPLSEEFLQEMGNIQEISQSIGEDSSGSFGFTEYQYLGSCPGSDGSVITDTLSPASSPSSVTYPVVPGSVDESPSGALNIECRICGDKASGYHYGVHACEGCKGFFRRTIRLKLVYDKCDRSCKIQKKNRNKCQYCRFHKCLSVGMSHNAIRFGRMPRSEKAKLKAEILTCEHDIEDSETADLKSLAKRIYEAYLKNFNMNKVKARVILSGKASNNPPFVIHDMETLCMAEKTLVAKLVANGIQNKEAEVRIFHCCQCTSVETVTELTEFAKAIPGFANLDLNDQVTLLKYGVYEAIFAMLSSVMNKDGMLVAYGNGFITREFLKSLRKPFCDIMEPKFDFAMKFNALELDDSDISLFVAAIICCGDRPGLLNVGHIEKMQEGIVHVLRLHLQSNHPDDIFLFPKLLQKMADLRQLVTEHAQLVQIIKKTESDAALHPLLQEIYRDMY

[7] = biological target: T5, Vitamin D3 receptor (Homo sapiens) (UniProt P11473); assay: Antagonist activity at human VDR expressed in HEK293T cells assessed as inhibition of 1,25(OH)2VD3-induced response at 1 uM after 24 hrs by luciferase reporter gene assay; format: cell-based
T5 sequence (whole entry): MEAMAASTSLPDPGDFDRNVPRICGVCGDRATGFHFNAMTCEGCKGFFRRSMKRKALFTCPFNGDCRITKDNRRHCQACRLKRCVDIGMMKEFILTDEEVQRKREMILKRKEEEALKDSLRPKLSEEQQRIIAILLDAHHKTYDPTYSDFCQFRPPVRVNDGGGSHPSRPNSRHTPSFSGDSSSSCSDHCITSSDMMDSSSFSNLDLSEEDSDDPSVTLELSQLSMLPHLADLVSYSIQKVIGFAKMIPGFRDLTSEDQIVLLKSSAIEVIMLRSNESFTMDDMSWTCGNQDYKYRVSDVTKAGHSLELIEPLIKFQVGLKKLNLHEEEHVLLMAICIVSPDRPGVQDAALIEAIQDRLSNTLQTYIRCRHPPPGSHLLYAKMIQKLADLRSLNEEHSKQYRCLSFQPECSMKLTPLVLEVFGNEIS

3T3-L1 [8] = assay: Antiadipogenic activity in mouse 3T3L1 cells assessed as inhibition of CDCA-induced intracellular lipid droplets after 6 days by Oil Red O staining based assay; format: functional, cell-based

For `Cc1ccc2nc([C@H](CC3CCN(C(=O)C(C)C)CC3)N3C(=O)CN(c4ccc(Oc5ccccc5)cc4)C3=O)n(C)c2c1`, the inhibition [1] was “inactive”, the inhibition (3T3-L1 [2]) was “Dose-dependent effect” and the pIC50 (Hep 3B2) was < 4.00. The inhibition [3] was “inactive”, the Activity [4] was “inactive” and the inhibition [5] was “inactive”. For the same compound, the inhibition [6] was “inactive”, the inhibition [7] was “inactive” and the inhibition (3T3-L1 [8]) was “Dose-dependent effect”.
